Results published in ChEMBL document CHEMBL3045503, “Mode of Action of Herbicides Affecting Carotenogenesis” (J Pestic Sci, 1996).

Assays:
Nicotiana tabacum [1] = assay: Inhibition of colored carotenoid formation in Nicotiana tabacum (tobacco); type: functional, organism-based; conditions: read-out: I50
Nicotiana tabacum [2] = assay: Inhibition of colored carotenoid formation in transgenic Nicotiana tabacum (tobacco) ET4-208; type: functional, organism-based; conditions: read-out: I50
Pantoea ananatis [3] = assay: Resistance factor, ratio of I50 for Pantoea ananatis NFZ20 phytoene desaturase mutant to I50 for wild-type Erwinia uredovora phytoene desaturase by cell-free assay
Pantoea ananatis [4] = assay: Resistance factor, ratio of I50 for Pantoea ananatis NFZ4 phytoene desaturase mutant to I50 for wild-type Erwinia uredovora phytoene desaturase by cellular assay
Pantoea ananatis [5] = assay: Resistance factor, ratio of I50 for Pantoea ananatis NFZ20 phytoene desaturase mutant to I50 for wild-type Erwinia uredovora phytoene desaturase by cellular assay
Pantoea ananatis [6] = assay: Resistance factor, ratio of I50 for Pantoea ananatis NFZ42 phytoene desaturase mutant to I50 for wild-type Erwinia uredovora phytoene desaturase by cell-free assay
Pantoea ananatis [7] = assay: Resistance factor, ratio of I50 for Pantoea ananatis NFZ42 phytoene desaturase mutant to I50 for wild-type Erwinia uredovora phytoene desaturase by cellular assay
Pantoea ananatis [8] = assay: Resistance factor, ratio of I50 for Pantoea ananatis NFZ4 phytoene desaturase mutant to I50 for wild-type Erwinia uredovora phytoene desaturase by cell-free assay

Row | Structure (SMILES) | IC50 (Nicotiana tabacum [1]) [nM] | IC50 (Nicotiana tabacum [2]) [µM] | Ratio (Pantoea ananatis [3]) | Ratio (Pantoea ananatis [4]) | Ratio (Pantoea ananatis [5]) | Ratio (Pantoea ananatis [6]) | Ratio (Pantoea ananatis [7]) | Ratio (Pantoea ananatis [8])
1 | O=C(Nc1ccc(F)cc1F)c1cccnc1Oc1cccc(C(F)(F)F)c1 [DIFLUFENICAN] | 38 | > 100 |  |  |  |  |  | 
2 | Nc1nc[nH]n1 [AMITROLE] | 68000 | 72 |  |  |  |  |  | 
3 | CC1(C)CC(=O)C(C(=O)c2ccc(Cl)cc2[N+](=O)[O-])C(=O)C1 | 42 | 0.048 |  |  |  |  |  | 
4 | O=c1c(-c2ccccc2)c[nH]cc1-c1cccc(C(F)(F)F)c1 [FLURIDONE] |  |  | 8 | 4 | 8 | 1 | 0.5 | 
5 | CCC(COc1cccc(C(F)(F)F)c1)OC(=O)NCCc1ccccc1 (configuration not stated) | 1300 | > 100 |  |  |  |  |  | 
6 | CNc1cnn(-c2cccc(C(F)(F)F)c2)c(=O)c1Cl [NORFLURAZONE] | 330 | > 100 | 12 | 24 | 20 | 23 | 40 | 15
7 | C=C(Cl)COc1cc(C)nc(NC(C)C)n1 | 4500 | > 100 |  |  |  |  |  | 
8 | CCOC(=O)C1=C(c2ccccc2)OC(CC)C(C)C1=O (configuration not stated) | 740 | > 100 |  |  |  |  |  | 
9 | CNC1=C(c2cccc(C(F)(F)F)c2)C(=O)C(c2ccccc2)O1 (configuration not stated) [FLURTAMONE] | 47 | > 100 |  |  |  |  |  | 
